PMC8066331, “Anticancer Activity of Triazolo-Thiadiazole Derivatives and Inhibition of AKT1 and AKT2 Activation” (Pharmaceutics, 2021)

How the values were obtained:
[1] = system: SKOV-3; assay: MTT in vitro antiproliferative assay, SKOV-3; assay type: cell-based; conditions: Homo sapiens, SK-OV-3, 48 h
From the text: (§1) The in vitro antiproliferative activities of the novel triazolo[3,4-b]thiadiazole derivatives were estimated in ten well-established human cancer cell lines including three ovarian (SKOV-3, UWB 1.289, and UWB 1.289+BRCA1), five colorectal adenocarcinoma (DLD-1, HT-29, LS174T, LoVo, and SW403), and two prostate cancer cell lines (PC-3 and DU-145). All cancer cell lines were obtained from the American Type Culture Collection (ATCC) and cultivated in different culture media according to the instructions. The required growth mediums were supplemented with 10% fetal bovine serum and 1% streptomycin/penicillin. All cancer cell lines were cultured as monolayers and maintained at 37 °C, 5% CO2 in humidified air.
(§2) Stock solutions of all tested compounds were prepared by dissolving the required amount of substances in the DMSO solvent to reach the desired concentration of 15 mM.
(§3) To evaluate the in vitro antiproliferative activity of the triazolo[3,4-b]thiadiazole derivatives, 3-(4,5-dimethylthiazol-2-yl)-2,5-diphenyltetrazolium bromide (MTT) assay was assessed. According to the protocol, cells were firstly seeded into a 96-well plate at a density of 8 × 10^3 cells and grown for 24 h at 37 °C, 5% CO2 in humidified air. Subsequently, cells were treated with the tested compounds in a specific range of drug concentrations (1–100 μΜ). Following 48 h of drug exposure, the culture media were discarded and replaced with 100 μL of fresh medium. Afterwards, 50 μL of dissolved MTT in phosphate-buffered saline (PBS) solution (5 mg/mL) were added in each well and cells were incubated for 3 h at 37 °C, 5% CO2 in humidified air. Incubation time was followed by MTT discard and the addition of 100 μL of DMSO solvent so that the formazan crystals could be dissolved. The absorbance of the converted dye was immediately measured at a wavelength of 540 nm on an ELISA reader (VersaMax Microplate Reader, Orleans, CA, USA).
(§4) The in vitro anticancer effect of a tested compound on cell viability was determined by three dose–response parameters termed GI50, TGI, and IC50. More specifically, the GI50 value indicates the required concentration of the compound that impels 50% cell growth inhibition, the TGI value corresponds to the concentration that induces 100% cell growth inhibition, and the IC50 value is the concentration that causes 50% cell death. The two parameters GI50 and TGI represent the cytostatic activity, whereas IC50 reflects the cytotoxic effect of a drug. To estimate the three parameters, nine absorbance measurements were required including control 24 h (Ct24), control 72 h (Ct72), and the mean of cell survival in all seven drug concentrations (Tt72). The percentage growth inhibition was calculated according to National Cancer Institute’s (NCI) protocol: [(Tt72x) − (Ct24)/(Ct72) − (Ct24)] × 100 for concentrations for which Tt72x > Ct24 and [(Tt72x) − (Ct24)/Ct24] × 100 for concentrations for which Tt72x < Ct24. GI50 was calculated from [(Tt72x) − (Ct24)/(Ct72) − (Ct24)] × 100 = 50, TGI was calculated from [(Tt72x) − (Ct24)/(Ct72) − (Ct24)] × 100 = 0, and IC50 was calculated from [(Tt72x) − (Ct24)/Ct24] × 100 = 50. All the experiments were carried out in triplicate.

[2] = system: HT-29; assay: MTT in vitro antiproliferative assay, HT-29; assay type: cell-based, human
From the text: as §1, §2, §3, §4

[3] = system: PC-3; assay: MTT in vitro antiproliferative assay, PC-3; assay type: cell-based; conditions: Homo sapiens, PC-3, 48 h
From the text: as §1, §2, §3, §4

[4] = system: DU-145; assay: MTT in vitro antiproliferative assay, DU-145; assay type: cell-based, human
From the text: as §1, §2, §3, §4

[5] = system: DLD-1; assay: MTT in vitro antiproliferative assay, DLD-1; assay type: cell-based, human; conditions: DLD-1, MTT
From the text: as §1, §2, §3, §4

SMILES: CCN(CC)S(=O)(=O)c1cc(OC)c(OC)cc1Cc1nnc2sc(-c3cc([N+](=O)[O-])ccc3[N+](=O)[O-])nn12 [Compound 6e, 2-((6-(2,5-dinitrophenyl)-[1,2,4]triazolo[3,4-b][1,3,4]thiadiazol-3-yl)methyl)-N,N-diethyl-4,5-dimethoxybenzenesulfonamide]
- GI50 [1]: 18 ± 0.7 µM
- IC50 [1]: 38 ± 1.8 µM
- IC (TGI) ([1]; read-out: TGI): 24 ± 1.2 µM
- TGI ([2]; HT-29, MTT, 48 h drug exposure): 29 ± 0.5 μΜ
- GI50 ([2]; Homo sapiens, HT-29, 48 h): 18 ± 1 µM
- IC50 ([2]; Homo sapiens, HT-29, 48 h): 44 ± 1 µM
- GI50 [3]: 11 ± 1 µM
- IC50 [3]: 26.5 ± 0.9 µM
- IC (TGI) ([3]; read-out: TGI): 17 ± 1 µM
- TGI ([4]; DU-145, MTT, 48 h drug exposure): 18.3 ± 0.2 μΜ
- GI50 ([4]; Homo sapiens, DU-145, 48 h): 13 ± 0.5 µM
- IC50 ([4]; Homo sapiens, DU-145, 48 h): 28 ± 0.2 µM
- TGI ([5]; 48 h drug exposure): 37 ± 2.0 μΜ
- IC50 ([5]; Homo sapiens, 48 h, 50% cell death): 53.6 ± 1.05 µM
- GI50 ([5]; Homo sapiens, 48 h drug exposure): 25 ± 2 µM
